In one test the test system is U2OS cells. Description: Transferrin (Tfn) endocytosis (RME) in U2OS cells. Format: cell-based. Particulars: 15 min peptide preincubation at various concentrations, Tfn 15 min at 37° C. On the procedure:
Briefly, non-neuronal U2OS cells were preincubated with vehicle only or each peptide at various concentrations for 15 min. Cells were then incubated with Tfn for 15 min at 37° C., acid washed, fixed and internalized Tfn was detected by fluorescence microscopy. Quantitative analysis of endocytosis in the presence of different concentrations of the peptides is shown as mean fluorescence as a percent of fluorescence in control cells. The results shown in FIG. 11 are representative of 2 independent experiments. Endocytosis in control cells (no peptide) is expressed as 100%.

Test [1] relates to synaptosomes (synaptic vesicle turnover). Description: SV turnover assay (FM2-10 loading/unloading) in synaptosomes. The test is classed as cell-based, rat. On the procedure: (§1) In all SV recycling studies synaptosomes were prepared from rat cerebral cortex by centrifugation on discontinuous percoll gradients (Dunkley et al. 1986). The glutamate release assay was performed as described before (Cousin and Robinson 2000a). Data is presented as Ca^2+-dependent glutamate release, calculated as the difference between release in plus and minus Ca^2+ solutions. Penetratin peptides (Genemed Synthesis) were preincubated with the synaptosomes for 30 min before stimulation and had no effect on Ca^2+-independent release of glutamate.
(§2) Loading of FM2-10 (Molecular Probes) into recycling synaptosomal SVs was measured as previously described. Data is presented as Ca^2+-dependent FM2-10 unloading, which is the difference between release after loading in plus and minus Ca^2+ solutions. Where indicated, synaptosomes were preincubated with penetratin peptide for 30 min prior to stimulation of FM2-10 loading. […] The same assay was used to monitor the effect of penetratin peptide on SV exocytosis. However, in this instance, the synaptosomes were loaded with FM2-10 in plus Ca^2+ Krebs-like solution and, where indicated, were preincubated with penetratin peptide for 30 min prior to stimulation of FM2-10 unloading. Data is presented as Ca^2+-dependent FM2-10 unloading. The SV internalisation assay was performed as previously described.
SVE in synaptosomes was measured to determine whether the phosphorylation sites in dynamin I play a direct role in SVE. Since isolated nerve terminals cannot be transfected with DNA, a membrane-permeable peptide strategy was employed. Mimetic peptides (DynI769-784AA (SEQ ID No. 8) and DynI769-784EE (SEQ ID No. 9)) were designed corresponding to the amino acid sequence of the dynamin I phospho-box (FIG. 5a) and were tagged with a penetratin heptapeptide RRMKWKK (SEQ ID No. 12) to facilitate their delivery into synaptosomes. Briefly, synaptosomes were preincubated in the presence or absence of either penetratin peptide (250 μM) prior to FM2-10 loading stimulated by 30 mM KCl. Accumulated FM2-10 was unloaded by another KCl stimulus (indicated by the solid bar). […] If the phosphorylation-regulated syndapin I interaction itself is essential for SVE, the penetratin-linked peptides may inhibit the process. […] The DynI769-784AA peptide (250 μM) inhibited turnover by more than 40% (57.1±2.1% of control), compared to less than 20% with the DynI769-784EE peptide (250 μM, 81.1±2.4% of control).

For test [2], the system named is synaptosomes (SV exocytosis). Put plainly: KCl-evoked Ca2+-dependent glutamate release assay in synaptosomes. Particulars: peptide preincubated 30 min; KCl stimulation. Format: cell-based, rat. On the procedure: as §1
A block in SV turnover cannot be ascribed to an inhibition of SVE until an effect on exocytosis has been excluded. Two independent exocytosis assays were conducted to assess this: endogenous glutamate release and FM2-10 unloading. Neither the DynI769-784AA nor DynI769-784EE peptide had any significant effect on KCl-evoked Ca^2+-dependent glutamate release (DynI769-784AA […]±8.4% of control; DynI769-784EE […]±9.5% of control, FIG. 5c). Both peptides had small effects on FM2-10 unloading evoked by 30 mM KCl (DynI769-784AA −81.1±0.8% of control; DynI769-784EE −82.3±0.6% of control, FIG. 5d). Finally, the extent of SVE inhibition by the peptides was quantified by calculating “retrieval efficiency” which takes into account prior exocytosis; a value of less than one indicating a selective SVE inhibition. […]

Test [3] concerns synaptosomes (SV exocytosis). Description: FM2-10 unloading (SV exocytosis) assay in synaptosomes. The note with it: evoked by 30 mM KCl; peptide preincubated 30 min before unloading. Format: cell-based, rat. On the procedure:
as §2
A block in SV turnover cannot be ascribed to an inhibition of SVE until an effect on exocytosis has been excluded. Two independent exocytosis assays were conducted to assess this: endogenous glutamate release and FM2-10 unloading. […] Finally, the extent of SVE inhibition by the peptides was quantified by calculating “retrieval efficiency” which takes into account prior exocytosis; a value of less than one indicating a selective SVE inhibition. […]

Test [4] relates to synaptosomes (SV retrieval from the plasma membrane). Put plainly: FM2-10 SV internalisation assay (purified SVs from synaptosomes). The test is classed as cell-based, rat. On the procedure:
as §2
If SVE was arrested before SV fission occurred, […]. SVs were purified and their fluorescence values were corrected for dye uptake in the absence of Ca^2+ (Ca^2+-dependent) and normalised to control (n=3, mean ±s.e.m.).

In test [5] the target is T1, endophilin I binding to DynI-PRD (Rattus norvegicus, UniProt O35179).
T1 construct: from tissue; host or cells: target from total rat brain extract; GST-DynI-PRD made in house in Escherichia coli
T1 sequence (O35179 whole entry): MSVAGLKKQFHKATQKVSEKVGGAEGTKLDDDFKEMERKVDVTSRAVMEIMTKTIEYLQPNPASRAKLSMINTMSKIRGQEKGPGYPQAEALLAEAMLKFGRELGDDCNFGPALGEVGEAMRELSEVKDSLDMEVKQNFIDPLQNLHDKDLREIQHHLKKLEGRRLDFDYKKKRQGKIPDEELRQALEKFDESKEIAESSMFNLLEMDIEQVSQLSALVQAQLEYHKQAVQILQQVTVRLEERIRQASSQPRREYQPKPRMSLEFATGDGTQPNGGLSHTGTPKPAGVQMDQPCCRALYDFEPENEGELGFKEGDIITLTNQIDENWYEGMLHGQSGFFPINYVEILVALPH
Put plainly: GST-DynI-PRD pull-down with peptide competition: endophilin I. The note with it: increasing amounts of peptide. On the procedure:
(§3) Total rat brain extract was prepared by homogenising brain tissue in ice-cold lysis buffer (1% Triton X-100, 150 mM NaCl, 25 mM Tris pH 7.4, 1 mM EDTA, 1 mM EGTA, 20 μg/ml leupeptin, 1 mM phenylmethylsulfonyl fluoride and EDTA-free Complete protease inhibitor (Roche)). The homogenate was centrifuged twice at 75,600 g for 30 min at 4° C. The supernatant was pre-cleared by addition of GSH-sepharose beads for 1 h, pelleted at 50 g for 5 min at 4° C., and the supernatant collected. GST-DynI-PRD recombinant proteins were then incubated with an equal amount of tissue lysate at 4° C. for 1 h. Beads were washed extensively with ice-cold 20 mM Tris pH 7.4 containing 1 mM EGTA, eluted in 2×SDS-PAGE sample buffer, resolved on 7.5-15% gradient SDS gels and stained with colloidal Coomassie Blue. Identification of proteins was by matrix-assisted laser desorption ionization time-of-flight mass spectrometry (MALDI-TOF MS). Some peptides were sequenced by tandem MS/MS.
(§4) A common characteristic of most binding sites for SH3 domains is the presence of the core amino acid motif PxxP, which is often followed or preceded by a basic Arg residue. There are 13 such motifs in the dynamin I PRD (numbered from site 1 at the N-terminus of the PRD at Pro-753 in dynamin I). […]

Test [6] has as its target T2, amphiphysin I binding to DynI-PRD (Rattus norvegicus, UniProt O08838).
T2 construct: it is full-length amphiphysin I being detected in the present study; from tissue; host or cells: target from total rat brain extract; GST-DynI-PRD made in house in Escherichia coli
T2 sequence (O08838 1-683): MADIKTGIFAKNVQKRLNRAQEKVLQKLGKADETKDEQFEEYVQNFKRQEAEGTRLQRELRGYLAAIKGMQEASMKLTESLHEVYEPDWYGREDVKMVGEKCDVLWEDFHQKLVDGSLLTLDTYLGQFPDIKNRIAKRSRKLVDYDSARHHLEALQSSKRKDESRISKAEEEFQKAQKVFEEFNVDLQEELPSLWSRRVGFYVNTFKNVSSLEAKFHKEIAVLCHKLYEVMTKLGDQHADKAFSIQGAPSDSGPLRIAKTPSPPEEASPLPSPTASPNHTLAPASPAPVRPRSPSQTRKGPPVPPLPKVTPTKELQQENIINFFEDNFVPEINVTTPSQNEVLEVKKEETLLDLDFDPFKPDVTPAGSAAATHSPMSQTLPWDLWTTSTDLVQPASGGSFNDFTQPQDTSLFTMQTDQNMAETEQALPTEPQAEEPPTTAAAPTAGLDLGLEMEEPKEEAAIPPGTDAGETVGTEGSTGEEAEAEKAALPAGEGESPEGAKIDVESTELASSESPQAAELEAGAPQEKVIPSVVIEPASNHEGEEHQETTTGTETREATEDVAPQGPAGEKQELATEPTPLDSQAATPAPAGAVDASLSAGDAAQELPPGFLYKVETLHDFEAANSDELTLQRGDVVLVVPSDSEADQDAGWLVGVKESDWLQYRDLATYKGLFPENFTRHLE
Put plainly: GST-DynI-PRD pull-down with peptide competition: amphiphysin I. On the procedure:
as §3
A common characteristic of most binding sites for SH3 domains is the presence of the core amino acid motif PxxP, which is often followed or preceded by a basic Arg residue. […]
The binding site of amphiphysin I has previously been mapped to a single site, site 9 (FIG. 8), within the dynamin I-PRD (Grabs et al. 1997; Vallis et al. 1999). […] However, it is full-length amphiphysin I being detected in the present study. […]

The target of test [7] is T3, Syndapin I binding to DynI-PRD (Rattus norvegicus, UniProt Q9Z0W5).
T3 construct: from tissue; host or cells: target from total rat brain extract; GST-DynI-PRD made in house in Escherichia coli
T3 sequence (Q9Z0W5 whole entry): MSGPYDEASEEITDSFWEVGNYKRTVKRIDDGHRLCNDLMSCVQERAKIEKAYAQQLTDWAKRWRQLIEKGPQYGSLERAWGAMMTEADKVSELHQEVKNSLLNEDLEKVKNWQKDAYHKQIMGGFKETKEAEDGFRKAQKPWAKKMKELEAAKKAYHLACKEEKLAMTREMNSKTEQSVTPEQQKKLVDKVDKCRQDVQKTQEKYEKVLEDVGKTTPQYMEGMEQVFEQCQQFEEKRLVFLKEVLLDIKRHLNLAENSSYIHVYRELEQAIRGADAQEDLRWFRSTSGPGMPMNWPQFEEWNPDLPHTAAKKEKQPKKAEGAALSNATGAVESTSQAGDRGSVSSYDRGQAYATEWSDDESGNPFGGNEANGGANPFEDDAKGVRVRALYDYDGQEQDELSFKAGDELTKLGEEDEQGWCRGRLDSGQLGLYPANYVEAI
Description: GST-DynI-PRD pull-down from rat brain lysate with peptide competition: syndapin I. Particulars: increasing amounts of peptide. On the procedure:
as §3, §4

For test [8], the system named is p85 (the regulatory subunit of PI-3 kinase). Put plainly: GST-DynI-PRD pull-down with peptide competition: p85. The test is classed as binding, rat. The note with it: increasing amounts of peptide. On the procedure: as §3, §4

As to “DynI769-784EE: Dynamin I phospho-box mimetic peptide (residues 769-784), EE mutant, tagged with penetratin heptapeptide RRMKWKK (RRMKWKKPAGRREPTSEPTPQRR; listed as Rattus norvegicus)”, in the test with U2OS cells, the “endocytosis of transferrin (Tfn), RME” value was “without effect”. In addition, the “inhibition of SV turnover” value in test [1] (peptide 250 μM) is on record as “less than 20%”. The SV turnover in test [1] (peptide 250 μM, 30 min preincubation, FM2-10 loading with 30 mM KCl) is on record as 81.1±2.4 % of control. Also, the “retrieval efficiency (SV turnover/exocytosis)” value in test [1] (using data from either exocytosis assay, value below one = selective SVE inhibition) is recorded as “little effect”. Besides, the “KCl-evoked Ca2+-dependent glutamate release” value in test [2] is 90.2±9.5 % of control. In test [3], the FM2-10 unloading is 82.3±0.6 % of control. Besides, the “inhibition of FM2-10 accumulation in SVs” value in test [4] was “no significant effect”. Also, the “FM2-10 accumulation in purified SVs (Ca2+-dependent)” value in test [4] (n=3, mean ± s.e.m.) is given as 90.7±7.1 % of control.
Consider “RRAPAVPPARPGSR (listed as Rattus norvegicus) [DynI783-796, Peptide corresponding to site 2 and site 3 region of dynamin I PRD]”, for which the “inhibitory effect on endophilin I binding (relative to syndapin I)” value in test [5] is listed as “five-fold weaker inhibitory effect”. The “peptide concentration needed to inhibit amphiphysin I binding, relative” value in test [6] was 10 times higher peptide concentrations. The “effect on amphiphysin I binding” value in test [6] (later judged a non-specific artefact of Arg/Pro-rich peptide) is on record as “inhibitory effect”. Further, the “Syndapin I binding to DynI-PRD” value in test [7] is given as “greatly reduced in a concentration-dependent manner”. The “effect on binding to p85” value in test [8] was “little effect”.

These data come from patent US20080306007A1, “AGENTS FOR PROPHYLAXIS OR TREATMENT OF NEUROLOGICAL RELATED DISEASES AND CONDITIONS” (Newcastle Innovation Limited, priority 2007, published 2008).
